Columns and labels:
Assay in all cases: combination Emax (second highest fraction inhibited in the dose matrix, 72 h); higher = more inhibition; extreme values may be limits of the assay
[1] = test system: NCI-H1563 (Lung Adenocarcinoma)
Summary of the method: (§1)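 Cell lines in DMEM/F12 or RPMI with 10% FBS were plated in 1536-well plates, held 24 hours at 37°C, 5% CO2, then given two-drug dose matrices for 72 hours (DMSO typically 0.2%). Viability was read by CellTiter-Glo 2.0 luminescence and scaled as inhibition from 0 (vehicle wells) to 1 (blank wells). Combination Emax is the second-highest inhibition in the matrix; Bliss excess is observed combination effect minus expected EA + EB − EA·EB, EA and EB being single-agent effects.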

[2] = test system: COLO-684 (Endometrial Carcinoma)
Summary of the method: as §1

[3] = test system: CML-T1 (Chronic Myelogenous Leukemia)
Summary of the method: as §1

[4] = test system: NCI-H1623 (Lung Adenocarcinoma)
Summary of the method: as §1

[5] = test system: NKM-1 (Acute Myeloid Leukemia)
Summary of the method: as §1

[6] = test system: LAMA-84 (Chronic Myelogenous Leukemia)
Summary of the method: as §1

[7] = test system: NCI-H1155 (Non-Small Cell Lung Carcinoma)
Summary of the method: as §1

[8] = test system: Calu-6 (Non-Small Cell Lung Carcinoma)
Summary of the method: as §1

[9] = test system: KYSE-70 (Esophageal Squamous Cell Carcinoma)
Summary of the method: as §1

[10] = test system: NCI-H810 (Non-Small Cell Lung Carcinoma)
Summary of the method: as §1

[11] = test system: Becker (Low Grade Glioma)
Summary of the method: as §1

[12] = test system: SNU-175 (Colorectal Carcinoma)
Summary of the method: as §1

RT4 (Bladder Carcinoma) = test system: RT4 (Bladder Carcinoma)
Summary of the method: as §1

[13] = test system: HTC-C3 (Thyroid Gland Carcinoma)
Summary of the method: as §1

[14] = test system: BALL-1 (B-Lymphoblastic Leukemia)
Summary of the method: as §1

[15] = test system: FLO-1 (Esophageal Adenocarcinoma)
Summary of the method: as §1

786-0 (Kidney Carcinoma) = test system: 786-0 (Kidney Carcinoma)
Summary of the method: as §1

[16] = test system: RL95-2 (Endometrial Carcinoma)
Summary of the method: as §1

[17] = test system: SJRH30 (Rhabdomyosarcoma)
Summary of the method: as §1

Row | SMILES | combination Emax [1] | combination Emax [2] | combination Emax [3] | combination Emax [4] | combination Emax [5] | combination Emax [6] | combination Emax [7] | combination Emax [8] | combination Emax [9] | combination Emax [10] | combination Emax [11] | combination Emax [12] | combination Emax (RT4 (Bladder Carcinoma)) | combination Emax [13] | combination Emax [14] | combination Emax [15] | combination Emax (786-0 (Kidney Carcinoma)) | combination Emax [16] | combination Emax [17]
1 | CC(=O)c1c(C)c2cnc(Nc3ccc(N4CCNCC4)cn3)nc2n(C2CCCC2)c1=O [Palbociclib] + Cc1c2c(nn1C)CSCc1cc(n(C)n1)CSc1cc(c3ccccc3c1)OCCCc1c(C(=O)O)n(C)c3c-2c(Cl)ccc13 [AZD5991] (first compound max 10 µM, 7x7, partner max 1 µM) | 0.609 | 0.321 | 0.924 | 0.818 | 0.994 | 0.663 | 0.237 | 0.33 | 0.157 | 0.224 | 0.428 | 0.652 | 0.355 | 0.248 | 0.777 | 0.603 | 0.489 | 0.939 | 0.786
2 | C[C@@H](c1ccc2nccn2c1)n1nnc2ncc(-c3cnn(C)c3)nc21 [Savolitinib] + Cc1c2c(nn1C)CSCc1cc(n(C)n1)CSc1cc(c3ccccc3c1)OCCCc1c(C(=O)O)n(C)c3c-2c(Cl)ccc13 [AZD5991] (first compound max 1 µM, 7x7, partner max 1 µM) | 0.465 | 0.174 | 0.228 | 0.802 | 0.976 | 0.234 | 0.114 | 0.172 | 0.107 | 0.255 | 0.366 | 0.426 | 0.25 | 0.182 | 0.612 | 0.294 | 0.183 | 0.577 | 0.464
3 | NC1(C(=O)N[C@@H](CCO)c2ccc(Cl)cc2)CCN(c2ncnc3[nH]ccc23)CC1 [Capivasertib] + CC(C)n1c(=O)n(C)c2cnc3cc(F)c(-c4ccc(OCCCN5CCCCC5)nc4)cc3c21 [AZD1390] (first compound max 10 µM, 7x7, partner max 0.3 µM) | 0.452 | 0.56 | 0.656 | 0.477 | 0.459 | 0.328 | 0.357 | 0.222 | 0.259 | 0.166 | 0.522 | 0.269 | 0.0517 | 0.308 | 0.576 | 0.346 | 0.489 | 0.823 | 0.701
4 | C=CCn1c(=O)c2cnc(Nc3ccc(N4CCN(C)CC4)cc3)nc2n1-c1cccc(C(C)(C)O)n1 [AZD1775] + C1CN(CCC1(C(=O)N[C@@H](CCO)C2=CC=C(C=C2)Cl)N)C3=NC=NC4=C3C=CN4 [Capivasertib] (first compound max 3 µM, partner max 3 µM) | 0.459 | 0.841 | 0.932 | 0.597 | 0.954 | 0.939 | 0.831 | 0.8 | 0.534 | 0.873 | 0.602 | 0.917 | 0.712 | 0.642 | 1 | 0.921 | 0.817 | 0.963 | 0.955
5 | NC1(C(=O)N[C@@H](CCO)c2ccc(Cl)cc2)CCN(c2ncnc3[nH]ccc23)CC1 [Capivasertib] + Cn1cnc2c(F)c(Nc3ccc(Br)cc3Cl)c(C(=O)NOCCO)cc21 [Selumetinib] (first compound max 10 µM, 7x7, partner max 10 µM) | 0.4 | 0.63 | 0.828 | 0.813 | 0.965 | 0.977 | 0.473 | 0.707 | 0.374 | 0.139 | 0.65 | 0.534 | 0.45 | 0.772 | 0.478 | 0.559 | 0.696 | 1 | 0.769
6 | NC1(C(=O)N[C@@H](CCO)c2ccc(Cl)cc2)CCN(c2ncnc3[nH]ccc23)CC1 [Capivasertib] + CC(=O)c1c(C)c2cnc(Nc3ccc(N4CCNCC4)cn3)nc2n(C2CCCC2)c1=O [Palbociclib] (first compound max 10 µM, 7x7, partner max 10 µM) | 0.47 | 0.632 | 0.939 | 0.506 | 0.796 | 0.558 | 0.566 | 0.415 | 0.377 | 0.141 | 0.624 | 0.634 | 0.362 | 0.474 | 0.597 | 0.551 | 0.681 | 0.904 | 0.794

Source: the supplement of paper PMC11061612
